Assay [1] has as its target T1, rat P2X7 (Rattus norvegicus (Rat), UniProt Q64663). As to the kind of experiment: Ca2+ flux (FLIPR) in 1321N1 cells expressing recombinant rat P2X7. Type of assay: cell-based. The following applies: Table 2, additional runs; 250 μM BzATP. Here is the method: (§1) P2X7 Antagonism in Recombinant Human P2X7 Cells or Recombinant Rat P2X7 Cells: (a) Ca^2+ Flux and (b) Radioligand Binding
(§2) 1321N1 cells expressing the recombinant human or rat P2X7 channel was cultured in HyQ DME/(HyClone/Dulbecco's Modified Eagle Medium) high glucose supplemented with 10% Fetal Bovine Serum (FBS) and appropriate selection marker. Cells were seeded at a density of 25000 cells/well (96-well clear bottom black walled plates) in 100 μl volume/well. On the day of the experiment, cell plates were washed with assay buffer, containing (in mM): 130 NaCl, 2 KCl, 1 CaCl2, 1 MgCl2, 10 HEPES, 5 glucose; pH 7.40 and 300 mOs. After the wash, cells were loaded with the Calcium-4 dye (Molecular Device) and incubated in the dark for 60 minutes. Test compounds were prepared at 250× the test concentration in neat DMSO. Intermediate 96-well compound plates were prepared by transferring 1.2 μL of the compound into 300 μL of assay buffer. A further 3× dilution occurred when transferring 50 μL/well of the compound plate to 100 μL/well in the cell plate. Cells were incubated with test compounds and dye for 30 minutes. […] The fluorescence change was measured 180 seconds after adding the agonist.

Assay [2] concerns the target T1, rat P2X7. Description: Radioligand binding, recombinant rat P2X7-1321N1 cell membranes, tritiated A-804598. The following applies: Table 2, additional runs. The procedure:
as §1
(§3) human or rat P2X7-1321N1 cells were collected and frozen @−80° C. On the day of the experiment, cell membrane preparations were made according to standard published methods. […] The compound can be prepared as described in the literature. […] The assay was terminated by filtration (GF/B filters pre-soaked with 0.3% PEI) and washed with washing buffer (Tris-HCl 50 mM). The IC50 generated in the binding assay was corrected for tracer concentration and affinity of the tracer to derive at the affinity (Ki) of the test compounds. […] Data are analyzed and graphed on Graphpad Prism 5.

Assay [3] addresses T2, P2X7 (Homo sapiens (Human), UniProt Q99572). Description: Radioligand binding, recombinant human P2X7-1321N1 cell membranes, tritiated A-804598. The following applies: Table 2, additional runs. The procedure:
as §1, §3

In assay [4] the target is T2, P2X7. As to the kind of experiment: Ca2+ flux (FLIPR) in 1321N1 cells expressing recombinant human P2X7. The format is cell-based. To be noted: Table 2, additional runs; 250 μM BzATP. Here is the method: as §1, §2

The results in this text go back to patent US9540388B2, “P2X7 modulators” (Janssen Pharmaceutica NV, priority 2013, dated 2017).

T2 sequence (Q99572 whole entry): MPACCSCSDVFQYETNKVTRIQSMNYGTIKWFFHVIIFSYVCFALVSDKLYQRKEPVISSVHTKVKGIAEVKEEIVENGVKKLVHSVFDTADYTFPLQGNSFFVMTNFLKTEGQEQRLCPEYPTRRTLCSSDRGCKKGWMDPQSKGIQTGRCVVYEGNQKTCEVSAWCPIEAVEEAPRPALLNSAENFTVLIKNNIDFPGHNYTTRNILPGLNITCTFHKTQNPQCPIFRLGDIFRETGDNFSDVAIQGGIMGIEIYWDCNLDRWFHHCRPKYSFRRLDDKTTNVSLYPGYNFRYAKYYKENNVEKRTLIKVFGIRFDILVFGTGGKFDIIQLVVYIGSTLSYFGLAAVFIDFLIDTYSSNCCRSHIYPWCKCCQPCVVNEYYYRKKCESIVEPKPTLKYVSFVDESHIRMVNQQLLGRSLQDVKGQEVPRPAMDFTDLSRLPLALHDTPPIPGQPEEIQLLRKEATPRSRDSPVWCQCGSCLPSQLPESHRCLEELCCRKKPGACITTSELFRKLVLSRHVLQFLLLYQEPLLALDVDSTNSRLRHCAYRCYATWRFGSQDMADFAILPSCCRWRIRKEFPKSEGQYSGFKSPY
T1 sequence (Q64663 whole entry): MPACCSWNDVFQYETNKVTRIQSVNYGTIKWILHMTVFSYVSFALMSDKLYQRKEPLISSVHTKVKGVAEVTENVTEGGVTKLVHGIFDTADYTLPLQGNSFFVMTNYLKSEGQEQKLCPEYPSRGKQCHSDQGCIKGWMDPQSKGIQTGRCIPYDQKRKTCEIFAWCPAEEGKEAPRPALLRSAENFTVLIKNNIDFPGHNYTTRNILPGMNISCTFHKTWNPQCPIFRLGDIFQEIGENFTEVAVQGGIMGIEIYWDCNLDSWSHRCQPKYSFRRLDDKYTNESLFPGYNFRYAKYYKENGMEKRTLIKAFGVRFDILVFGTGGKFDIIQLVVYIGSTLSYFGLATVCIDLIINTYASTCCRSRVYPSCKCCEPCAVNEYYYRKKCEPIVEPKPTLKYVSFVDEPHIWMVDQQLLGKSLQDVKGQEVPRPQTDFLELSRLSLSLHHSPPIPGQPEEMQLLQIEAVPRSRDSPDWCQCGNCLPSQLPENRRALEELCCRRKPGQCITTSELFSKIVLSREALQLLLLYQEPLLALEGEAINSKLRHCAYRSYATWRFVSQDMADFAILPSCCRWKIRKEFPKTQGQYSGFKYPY

As to `Cc1nc(-c2nnc3n2C[C@H]2CCC[C@@H]3N2C(=O)c2cccc(C(F)(F)F)c2Cl)ccc1F` (stereo in doubt) [Example 193, (6R,10S)-11-{[2-Chloro-3-(trifluoromethyl)phenyl]carbonyl}-3-(5-fluoro-6-methylpyridin-2-yl)-5,6,7,8,9,10-hexahydro-6,10-epimino[1,2,4]triazolo[4,3-a]azocine], the values for the IC50 on rat P2X7 [1] and at P2X7 [4] were 41.1 nM and 30.7 nM, respectively. Moreover, the Ki at rat P2X7 [2] worked out at 4.9 nM; on P2X7 [3], 70.8 nM.
Consider `Cc1ccnc(-c2nnc3n2C[C@H]2CCC[C@@H]3N2C(=O)c2cccc(C(F)(F)F)c2Cl)c1` (stereo in doubt) [Example 194, (6R,10S)-11-{[2-Chloro-3-(trifluoromethyl)phenyl]carbonyl}-3-(4-methylpyridin-2-yl)-5,6,7,8,9,10-hexahydro-6,10-epimino[1,2,4]triazolo[4,3-a]azocine], for which the IC50 on rat P2X7 [1] came out at 7.4 nM; on P2X7 [4], 17.3 nM. In addition, the Ki was found to be 3.1 nM at rat P2X7 [2] and 14.1 nM at P2X7 [3].
As for `O=C(c1cccc(C(F)(F)F)c1Cl)N1[C@@H]2CCC[C@H]1c1nnc(-c3cccnn3)n1C2` (stereo in doubt) [Example 195, (6R,10S)-11-{[2-Chloro-3-(trifluoromethyl)phenyl]carbonyl}-3-pyridazin-3-yl-5,6,7,8,9,10-hexahydro-6,10-epimino[1,2,4]triazolo[4,3-a]azocine], the IC50 is > 10000 nM on rat P2X7 [1] and 40 nM at P2X7 [4]. The Ki on P2X7 [3] turned out to be 20.9 nM.
In the case of `O=C(c1cccc(C(F)(F)F)c1Cl)N1[C@@H]2CCC[C@H]1c1nnc(-c3cc(C(F)(F)F)ccn3)n1C2` (stereo in doubt) [Example 196, (6R,10S)-11-{[2-Chloro-3-(trifluoromethyl)phenyl]carbonyl}-3-[4-(trifluoromethyl)pyridin-2-yl]-5,6,7,8,9,10-hexahydro-6,10-epimino[1,2,4]triazolo[4,3-a]azocine], the IC50 is 1.7 nM on rat P2X7 [1] and 1.6 nM at P2X7 [4]. The Ki stood at 5.8 nM at rat P2X7 [2] and 21.9 nM on P2X7 [3].
Regarding `O=C(c1cccc(C(F)(F)F)c1Cl)N1[C@@H]2CCC[C@H]1c1nnc(-c3ccncn3)n1C2` (stereo in doubt) [Example 197, (6R,10S)-11-{[2-Chloro-3-(trifluoromethyl)phenyl]carbonyl}-3-pyrimidin-4-yl-5,6,7,8,9,10-hexahydro-6,10-epimino[1,2,4]triazolo[4,3-a]azocine], the figures for the IC50 on rat P2X7 [1] and at P2X7 [4] were 1490 nM and 10.7 nM, respectively. Further, the Ki was 63.1 nM at rat P2X7 [2] and 19.1 nM on P2X7 [3].
For the molecule `O=C(c1ccnc(C(F)(F)F)c1F)N1[C@@H]2CCC[C@H]1c1nnc(-c3ccccn3)n1C2` (stereo in doubt) [Example 198, (6R,10S)-11-{[3-Fluoro-2-(trifluoromethyl)pyridin-4-yl]carbonyl}-3-pyridin-2-yl-5,6,7,8,9,10-hexahydro-6,10-epimino[1,2,4]triazolo[4,3-a]azocine], the values for the IC50 at rat P2X7 [1] and on P2X7 [4] were 327 nM and 20.9 nM, respectively. Moreover, the Ki at rat P2X7 [2] worked out at 6.2 nM; at P2X7 [3] it was 9.8 nM.
In the case of `O=C(c1ccnc(C(F)(F)F)c1Cl)N1[C@@H]2CCC[C@H]1c1nnc(-c3ccccn3)n1C2` (stereo in doubt) [Example 199, (6R,10S)-11-{[3-Chloro-2-(trifluoromethyl)pyridin-4-yl]carbonyl}-3-pyridin-2-yl-5,6,7,8,9,10-hexahydro-6,10-epimino[1,2,4]triazolo[4,3-a]azocine], the 50% inhibitory concentration (IC50) on rat P2X7 [1] is 12.7 nM; at P2X7 [4] it was 29.5 nM. Further, the Ki at rat P2X7 [2] is 5 nM; on P2X7 [3] it was 25.1 nM.
Turning to `O=C(c1ccc(F)c(C(F)(F)F)c1Cl)N1[C@@H]2CCC[C@H]1c1nnc(-c3ccccn3)n1C2` (stereo in doubt) [Example 200, (6R,10S)-11-{[2-Chloro-4-fluoro-3-(trifluoromethyl)phenyl]carbonyl}-3-pyridin-2-yl-5,6,7,8,9,10-hexahydro-6,10-epimino[1,2,4]triazolo[4,3-a]azocine], the results for the IC50 at rat P2X7 [1] and on P2X7 [4] were 10.2 nM and […], respectively. For the same molecule, the inhibition constant (Ki) was 3.2 nM on rat P2X7 [2] and 10.7 nM on P2X7 [3].
As for `Cc1c(C(=O)N2[C@@H]3CCC[C@H]2c2nnc(-c4ccccn4)n2C3)cccc1C(F)(F)F` (stereo in doubt) [Example 201, (6R,10S)-11-{[2-Methyl-3-(trifluoromethyl)phenyl]carbonyl}-3-pyridin-2-yl-5,6,7,8,9,10-hexahydro-6,10-epimino[1,2,4]triazolo[4,3-a]azocine], the results for the IC50 at rat P2X7 [1] and on P2X7 [4] were 726 nM and 14 nM, respectively. The Ki on rat P2X7 [2] came out at 3.2 nM; on P2X7 [3], 11.5 nM.
For `O=C(c1ccc(Cl)c(F)c1Cl)N1[C@@H]2CCC[C@H]1c1nnc(-c3ccccn3)n1C2` (stereo in doubt) [Example 202, (6R,10S)-11-[(2,4-Dichloro-3-fluorophenyl)carbonyl]-3-pyridin-2-yl-5,6,7,8,9,10-hexahydro-6,10-epimino[1,2,4]triazolo[4,3-a]azocine], the results for the IC50 at rat P2X7 [1] and at P2X7 [4] were 462 nM and 17.6 nM, respectively. The Ki at rat P2X7 [2] turned out to be 5.8 nM; at P2X7 [3] it was 3.9 nM.
Regarding `O=C(c1ccc(F)c(Cl)c1Cl)N1[C@@H]2CCC[C@H]1c1nnc(-c3ccccn3)n1C2` (stereo in doubt) [Example 203, (6R,10S)-11-[(2,3-Dichloro-4-fluorophenyl)carbonyl]-3-pyridin-2-yl-5,6,7,8,9,10-hexahydro-6,10-epimino[1,2,4]triazolo[4,3-a]azocine], the IC50 is 20 nM at rat P2X7 [1] and 25.3 nM at P2X7 [4]. Also, the Ki on rat P2X7 [2] is 2.2 nM; on P2X7 [3] it was 5.3 nM.
